Reference: the supplement of paper PMC10011410
± gives the standard deviation of the averaged measurements.

Assays:
Settings in all cases: 24 h
U-2 OS [1] = test: cell viability (CellTiter-Glo) relative to DMSO (% of control); higher = more viable
Description: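 Cell viability of U-2 OS cells by CellTiter-Glo after 24 h compound treatment at 5, 10 and 20 uM (some at 40 and 80 uM), measured in parallel with the glutathione assay, as percent of DMSO control. Five technical replicate plates, averaged.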

U-2 OS [2] = test: relative cell count vs DMSO (cell painting) (fraction of DMSO control); higher = more cells remaining (less cytotoxic)
In short: (§1)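 Using 384-well plates holding about 1,500 U-2 OS cells per well, treatment was applied by pin tool for 24 h at 37 °C, generally at six 2-fold concentrations ranging from 20 μM to 625 nM. Staining with MitoTracker, concanavalin A, phalloidin, wheat germ agglutinin, Hoechst and SYTO 14 preceded Opera Phenix imaging and CellProfiler feature extraction against DMSO cells on the same plate. Activity score and cell count are both referenced to DMSO wells, the former as a Mahalanobis distance. Four replicate plates were averaged for every value.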

U-2 OS [3] = test: cell painting activity score (Mahalanobis distance from DMSO wells); higher = stronger morphological phenotype
In short: as §1

U-2 OS [4] = test: intracellular GSH:GSSG ratio (calculated); higher = more reduced glutathione pool
Description: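 Intracellular glutathione in U-2 OS cells after 24 h compound treatment at 5, 10 and 20 uM (some at 40 and 80 uM). Total glutathione and GSSG were measured with the GSH/GSSG-Glo kit, and the GSH:GSSG ratio was calculated. Mean of five technical replicate plates.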

U-2 OS [5] = test: total intracellular glutathione (GSH + GSSG) relative to DMSO (% of control); higher = more glutathione
Description: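 Total intracellular glutathione (GSH + GSSG) in U-2 OS cells by GSH/GSSG-Glo after 24 h compound treatment at 5, 10 and 20 uM (some at 40 and 80 uM), as percent of DMSO control. Five technical replicate plates, averaged.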

Row | SMILES | cell viability (U-2 OS [1]; 5 µM) | cell viability (U-2 OS [1]; 10 µM) | cell viability (U-2 OS [1]; 20 µM) | relative cell count (U-2 OS [2]; 0.625 µM) | relative cell count (U-2 OS [2]; 1.25 µM) | relative cell count (U-2 OS [2]; 2.5 µM) | relative cell count (U-2 OS [2]; 5 µM) | relative cell count (U-2 OS [2]; 10 µM) | relative cell count (U-2 OS [2]; 20 µM) | cell painting activity score (U-2 OS [3]; 0.625 µM) | cell painting activity score (U-2 OS [3]; 1.25 µM) | cell painting activity score (U-2 OS [3]; 2.5 µM) | cell painting activity score (U-2 OS [3]; 5 µM) | cell painting activity score (U-2 OS [3]; 10 µM) | cell painting activity score (U-2 OS [3]; 20 µM) | intracellular GSH:GSSG ratio (U-2 OS [4]; 5 µM) | intracellular GSH:GSSG ratio (U-2 OS [4]; 10 µM) | intracellular GSH:GSSG ratio (U-2 OS [4]; 20 µM) | total intracellular glutathione (U-2 OS [5]; 5 µM) | total intracellular glutathione (U-2 OS [5]; 10 µM) | total intracellular glutathione (U-2 OS [5]; 20 µM) | cell viability (U-2 OS [1]; 40 µM) | cell viability (U-2 OS [1]; 80 µM) | relative cell count (U-2 OS [2]; 40 µM) | relative cell count (U-2 OS [2]; 80 µM) | cell painting activity score (U-2 OS [3]; 40 µM) | cell painting activity score (U-2 OS [3]; 80 µM) | intracellular GSH:GSSG ratio (U-2 OS [4]; 40 µM) | intracellular GSH:GSSG ratio (U-2 OS [4]; 80 µM) | total intracellular glutathione (U-2 OS [5]; 40 µM) | total intracellular glutathione (U-2 OS [5]; 80 µM)
1 | CN(C)C/C=C/C(=O)Nc1ccc(C(=O)Nc2cccc(Nc3ncc(Cl)c(-c4c[nH]c5ccccc45)n3)c2)cc1 | 34.1 ± 4.7 | 31 ± 4.3 | 10.8 ± 2.7 | 0.429 | 0.45 | 0.407 | 0.251 | 0.152 | 0.164 | 22.6 | 23.3 | 23.3 | 19.2 | 18.5 | 29.4 | 2.92 | 3.73 | 6.62 | 26.7 ± 2.8 | 20.6 ± 2.5 | 11.6 ± 2.1 | – | – | – | – | – | – | – | – | – | –
2 | C[C@@H]1CC[C@@]2(OC1)O[C@H]1[C@@H](O)[C@H]3[C@@H]4CC[C@H]5C[C@@H](O[C@@H]6O[C@H](CO)[C@H](O[C@@H]7O[C@H](CO)[C@@H](O)[C@H](O[C@@H]8OC[C@@H](O)[C@H](O)[C@H]8O)[C@H]7O[C@@H]7O[C@H](CO)[C@H](O)[C@H](O[C@@H]8O[C@H](CO)[C@@H](O)[C@H](O)[C@H]8O)[C@H]7O)[C@H](O)[C@H]6O)[C@H](O)C[C@]5(C)[C@H]4CC[C@]3(C)[C@H]1[C@@H]2C | 64.5 ± 5.7 | 36.8 ± 12 | 8.23 ± 3.5 | 0.85 | 0.742 | 0.753 | 0.19 | 0.117 | 0.0498 | 7.99 | 7.32 | 7.71 | 8.51 | 13.6 | 28.6 | 13.7 | 20.4 | 11.7 | 76.2 ± 7.3 | 45.1 ± 18 | 21 ± 4.2 | – | – | – | – | – | – | – | – | – | –
3 | C=C(C)[C@@H](CC=C(C)C)C[C@@]12C[C@@H](CC=C(C)C)C(C)(C)[C@@](CC=C(C)C)(C(=O)/C(=C(\O)c3ccc(O)c(O)c3)C1=O)C2=O | 97 ± 2.7 | 101 ± 5.7 | 86.3 ± 7 | 0.996 | 0.96 | 0.961 | 0.986 | 0.836 | 0.53 | 5.64 | 4.81 | 6.25 | 5.03 | 9.54 | 9.17 | 21 | 16.1 | 24.5 | 96.4 ± 3.2 | 89 ± 1.9 | 76.7 ± 6.1 | 44.8 ± 18 | 0.589 ± 0.13 | 0.267 | 0.116 | 14.9 | 28.1 | 21.3 | 0.823 | 53.2 ± 8.8 | 5.32 ± 1.5
4 | CCCC[S@](=N)(=O)CC[C@H](N)C(=O)O | 101 ± 5.1 | 99.5 ± 3.6 | 95 ± 4.3 | 0.986 | 1.04 | 0.992 | 1.04 | 1.01 | 1.06 | 3.99 | 4.5 | 4.98 | 4.52 | 4 | 4.46 | – | – | – | 19.6 ± 2 | 16.8 ± 2.1 | 14.1 ± 1.3 | 101 ± 6.9 | 106 ± 4 | – | – | – | – | – | – | 11 ± 1.6 | 10.7 ± 1
5 | COc1ccc(/C(Cl)=C(/C=O)c2ccc(OC)cc2)cc1 | 102 ± 5.1 | 87.1 ± 4.2 | 49.8 ± 6 | 0.912 | 0.934 | 0.941 | 0.937 | 0.849 | 0.395 | 6.48 | 7.76 | 8.89 | 10.2 | 11.7 | 14.5 | 22.2 | 14.8 | 3.39 | 115 ± 4.6 | 108 ± 6.8 | 51.8 ± 4.8 | 44.2 ± 3.5 | 6.75 ± 0.88 | 0.442 | 0.0713 | 16.2 | 34 | 4.6 | 1.06 | 49.4 ± 2.6 | 8.12 ± 0.4
6 | CC1=NN(c2ccc(C(=O)O)cc2)C(=O)/C1=C\c1ccc(-c2cc(C)c(C)cc2[N+](=O)[O-])o1 | 91.3 ± 6.4 | 91.1 ± 2.4 | 96.4 ± 7.8 | 0.893 | 0.944 | 0.894 | 0.904 | 0.854 | 0.787 | 5.05 | 4.06 | 4.65 | 6.01 | 14.4 | 15 | 27.1 | 21.9 | 23.1 | 96 ± 2.5 | 105 ± 3.6 | 101 ± 4 | 107 ± 8.1 | 90.6 ± 5.9 | – | – | – | – | 20 | 18.3 | 102 ± 7.7 | 102 ± 5.6
7 | CC(C)([C@](C1=O)(C2=O)C/C=C(C)\C)[C@@H](C[C@]31C[C@@H](C(C)(OC3=C2C(C4=CC(O)=C(C=C4)O)=O)C)C/C=C(C)\C)C/C=C(C)\C | 99.7 ± 2.4 | 62.6 ± 14 | 43.4 ± 17 | 1.21 | 1.12 | 1.19 | 1.15 | 1.04 | 0.492 | 3.69 | 3.85 | 6.36 | 7.13 | 13.5 | 18.6 | 27 | 22.3 | 10.9 | – | – | – | 0.646 ± 0.18 | 0.745 ± 0.2 | – | – | – | – | – | 17.8 | – | –
